Here are results for 2 compounds from patent US20250090571A1, “CARD9 ATTENUATES AB PATHOLOGY AND MODIFIES MICROGLIAL RESPONSES IN AN ALZHEIMER’S DISEASE” (University of Virginia Patent Foundation, priority 2023, published 2025).

Format in all cases: in vivo, mouse
In assay [1] the test system is 5×FAD mice. Nature of the assay: Microglia depletion with PLX5622 chow, microgliosis and Aβ load in the cortex. The settings on record: PLX5622 chow for 2.5 months, vs normal chow. Here is the method: (§1) As previously published (110), brain sections were blocked for 1 hour at room temperature with 2% donkey serum, 1% bovine serum albumin, 0.1% triton, 0.05% tween in PBS prior to incubation with primary antibodies. The primary antibodies were then diluted in this block overnight at 4° C. Brain sections were stained with anti-Aβ (D54D2, Cell Signaling, 1:300 dilution) to label plaques. To assess neuronal cell death, sections were stained with anti-NeuN (MAβ377, Millipore Sigma, 1:500 dilution) and TUNEL (Millipore Sigma, 11684795910, according to the manufacturer's instructions). In order to analyze microglia, sections were stained with IBA1 (ab5076, Abcam, 1:300 dilution). Microglial proliferation was assessed using Ki67-EF660 (SolA15, Thermo Fisher, 1:100 dilution). Microglial iron accumulation was measured using Ferritin Heavy Chain (PA5-27500, Thermo Fisher, 1:500). Following primary antibody incubation, sections were then washed 3 times for 10 minutes at room temperature in PBS and 0.05% tween-20. After washing, the brain sections were incubated in respective donkey Alexa Fluor 488, 594, 647 anti-rabbit, -goat, -rat, -streptavidin, and-mouse (Thermo Fisher, 1:1000 dilution) for 2 hours at room temperature. Once again, brain sections were washed 3 times for 10 minutes at room temperature. […] Images were analyzed using FIJI software or Imaris software (9.5.1). […]

Assay [2] concerns Card9−/−5×FAD mice. Nature of the assay: Microglia depletion with PLX5622 chow, microgliosis and Aβ load in the cortex (CARD9-deficient). The settings on record: PLX5622 chow for 2.5 months, vs control chow. Here is the method: as §1
The test system of assay [3] is 5×FAD mice. Briefly: Intrahippocampal injection of pustulan, Aβ load in the hippocampus by immunofluorescence. Conditions: 2-month-old 5×FAD mice, 2 μg pustulan intrahippocampal, 7 days post-injection, vs vehicle-treated hemisphere. Here is the method: As previously published (110), brain sections were blocked for 1 hour at room temperature with 2% donkey serum, 1% bovine serum albumin, 0.1% triton, 0.05% tween in PBS prior to incubation with primary antibodies. The primary antibodies were then diluted in this block overnight at 4° C. Brain sections were stained with anti-Aβ (D54D2, Cell Signaling, 1:300 dilution) to label plaques. To assess neuronal cell death, sections were stained with anti-NeuN (MAβ377, Millipore Sigma, 1:500 dilution) and TUNEL (Millipore Sigma, 11684795910, according to the manufacturer's instructions). In order to analyze microglia, sections were stained with IBA1 (ab5076, Abcam, 1:300 dilution). Microglial proliferation was assessed using Ki67-EF660 (SolA15, Thermo Fisher, 1:100 dilution). Microglial iron accumulation was measured using Ferritin Heavy Chain (PA5-27500, Thermo Fisher, 1:500). Following primary antibody incubation, sections were then washed 3 times for 10 minutes at room temperature in PBS and 0.05% tween-20. After washing, the brain sections were incubated in respective donkey Alexa Fluor 488, 594, 647 anti-rabbit, -goat, -rat, -streptavidin, and-mouse (Thermo Fisher, 1:1000 dilution) for 2 hours at room temperature. Once again, brain sections were washed 3 times for 10 minutes at room temperature. […] Images were analyzed using FIJI software or Imaris software (9.5.1).
5×FAD and Card9^−/−5×FAD mice were anesthetized with a ketamine/xylazine cocktail before receiving a bilateral hippocampal injection of 2 μl of vehicle or 2 μg pustulan into the right and left hemisphere of the hippocampus (at +2 mm lateral, -2 mm posterior, and −2 mm ventral relative to the intersection of the coronal and sagittal suture (bregma) at a rate of 200 nl/min) using a stereotaxic frame (51730U, Stoelting) and nanoliter injector (NL2010MC2T, World Precision Instruments). […] Images were analyzed using FIJI software or Imaris software (9.5.1). […]

Assay [4] concerns Card9−/−5×FAD mice. Briefly: Intrahippocampal injection of pustulan, Aβ load in the hippocampus by immunofluorescence (CARD9-deficient control). Conditions: 2-month-old Card9−/−5×FAD mice, 2 μg pustulan intrahippocampal, 7 days post-injection, vs vehicle-treated hemisphere. The protocol:
as §1

For the compound `COc1ncc(F)cc1CNc1ccc(Cc2c[nH]c3ncc(C)cc23)c(F)n1` [PLX5622], the results for the “Aβ plaque load in the cortex” value with 5×FAD mice [1] and in the assay with Card9−/−5×FAD mice [2] were “significantly increased” and “did not significantly impact”, respectively.
Take Pustulan: in the assay with 5×FAD mice [3], the “Aβ coverage in the hippocampus” value was “significantly reduced”, the “Aβ plaque volume in the hippocampus” value is given as “lower plaque volume” and the “number of Aβ plaques in the hippocampus” value is “fewer plaques”. The “levels of Aβ in the hippocampus” value with Card9−/−5×FAD mice [4] is given as “comparable levels of Aβ regardless of treatment”.
